Laboratory results: patent US10125138B2, “Triazolotriazinone derivatives having activity a s herbicides” (Syngenta Participations AG, priority 2015, dated 2018)

Legend:
Assay type in all cases: in vivo
[1] = system: Echinochloa crus-galli (ECHCG); experiment: Post-emergence glasshouse herbicide test, Echinochloa crus-galli; settings: evaluated after 13 days, five point scale
Description: (§1) Seeds of a variety of test species are sown in standard soil in pots (Lolium perenne (LOLPE), Solanum nigrum (SOLNI), Amaranthus retoflexus (AMARE), Setaria faberi (SETFA), Echinochloa crus-galli (ECHCG), Ipomoea hederacea (IPOHE)). After cultivation for one day (pre-emergence) or after 8 days cultivation (post-emergence) under controlled conditions in a glasshouse (at 24/16° C., day/night; 14 hours light; 65% humidity), the plants are sprayed with an aqueous spray solution derived from the formulation of the technical active ingredient in acetone/water (50:50) solution containing 0.5% Tween 20 (polyoxyethelyene sorbitan monolaurate, CAS RN 9005-64-5). […] The test plants are then grown in a glasshouse under controlled conditions in a glasshouse (at 24/16° C., day/night; 14 hours light; 65% humidity) and watered twice daily. After 13 days for pre and post-emergence, the test is evaluated for the percentage damage caused to the plant. The biological activities are shown in the following table on a five point scale (5=80-100%; 4=60-79%; 3=40-59%; 2=20-39%; 1=0-19%).

[2] = system: Amaranthus retoflexus (AMARE); experiment: Pre-emergence glasshouse herbicide test, Amaranthus retoflexus; settings: evaluated after 13 days, five point scale
Description: as §1

[3] = system: Amaranthus retoflexus (AMARE); experiment: Post-emergence glasshouse herbicide test, Amaranthus retoflexus; settings: evaluated after 13 days, five point scale
Description: as §1

[4] = system: Echinochloa crus-galli (ECHCG); experiment: Pre-emergence glasshouse herbicide test, Echinochloa crus-galli; settings: evaluated after 13 days, five point scale
Description: as §1

[5] = system: Ipomoea hederacea (IPOHE); experiment: Post-emergence glasshouse herbicide test, Ipomoea hederacea; settings: evaluated after 13 days, five point scale
Description: as §1

[6] = system: Setaria faberi (SETFA); experiment: Pre-emergence glasshouse herbicide test, Setaria faberi; settings: evaluated after 13 days, five point scale
Description: as §1

[7] = system: Ipomoea hederacea (IPOHE); experiment: Pre-emergence glasshouse herbicide test, Ipomoea hederacea; settings: evaluated after 13 days, five point scale
Description: as §1

[8] = system: Setaria faberi (SETFA); experiment: Post-emergence glasshouse herbicide test, Setaria faberi; settings: evaluated after 13 days, five point scale
Description: as §1

[9] = system: Solanum nigrum (SOLNI); experiment: Pre-emergence glasshouse herbicide test, Solanum nigrum; settings: 1000 g/h, evaluated after 13 days, five point scale
Description: (§2) Seeds of a variety of test species are sown in standard soil in pots (Lolium perenne (LOLPE), Solanum nigrum (SOLNI), Amaranthus retoflexus (AMARE), Setaria faberi (SETFA), Echinochloa crus-galli (ECHCG), Ipomoea hederacea (IPOHE)). After cultivation for one day (pre-emergence) or after 8 days cultivation (post-emergence) under controlled conditions in a glasshouse (at 24/16° C., day/night; 14 hours light; 65% humidity), the plants are sprayed with an aqueous spray solution derived from the formulation of the technical active ingredient in acetone/water (50:50) solution containing 0.5% Tween 20 (polyoxyethelyene sorbitan monolaurate, CAS RN 9005-64-5). Compounds are applied at 1000 g/h. The test plants are then grown in a glasshouse under controlled conditions in a glasshouse (at 24/16° C., day/night; 14 hours light; 65% humidity) and watered twice daily. After 13 days for pre and post-emergence, the test is evaluated for the percentage damage caused to the plant. The biological activities are shown in the following table on a five point scale (5=80-100%; 4=60-79%; 3=40-59%; 2=20-39%; 1=0-19%).

[10] = system: Lolium perenne (LOLPE); experiment: Post-emergence glasshouse herbicide test, Lolium perenne; settings: evaluated after 13 days, five point scale
Description: as §1

[11] = system: Solanum nigrum (SOLNI); experiment: Post-emergence glasshouse herbicide test, Solanum nigrum; settings: 1000 g/h, evaluated after 13 days, five point scale
Description: as §2

[12] = system: Lolium perenne (LOLPE); experiment: Pre-emergence glasshouse herbicide test, Lolium perenne; settings: evaluated after 13 days, five point scale
Description: as §1

Compound	percentage damage caused to the plant, POST Application ECHCG ([1]; 1000 g/h)	percentage damage caused to the plant, PRE Application AMARE ([2]; 1000 g/h)	percentage damage caused to the plant, POST Application AMARE ([3]; 1000 g/h)	percentage damage caused to the plant, PRE Application ECHCG ([4]; 1000 g/h)	percentage damage caused to the plant, POST Application IPOHE ([5]; 1000 g/h)	percentage damage caused to the plant, PRE Application SETFA ([6]; 1000 g/h)	percentage damage caused to the plant, PRE Application IPOHE ([7]; 1000 g/h)	percentage damage caused to the plant, POST Application SETFA ([8]; 1000 g/h)	percentage damage caused to the plant, PRE Application SOLNI [9]	percentage damage caused to the plant, POST Application LOLPE ([10]; 1000 g/h)	percentage damage caused to the plant, POST Application SOLNI [11]	percentage damage caused to the plant, PRE Application LOLPE ([12]; 1000 g/h)	other results
Cc1cccc(-n2ncn3nc(C(=O)C4C(=O)CC(C)CC4=O)c(=O)nc23)c1 (centres unmarked) [Compound 6.001]	5 (5=80-100%)	5 (5=80-100%)	5 (5=80-100%)	5 (5=80-100%)	5 (5=80-100%)	4 (4=60-79%)	5 (5=80-100%)	5 (5=80-100%)	–	–	–	–	–
Cn1nnnc1NC(=O)c1nn2cnn(-c3ccc(C(F)(F)F)cc3)c2nc1=O [Compound 1.022]	5 (5=80-100%)	5 (5=80-100%)	5 (5=80-100%)	5 (5=80-100%)	4 (4=60-79%)	5 (5=80-100%)	4 (4=60-79%)	5 (5=80-100%)	5 (5=80-100%)	3 (3=40-59%)	5 (5=80-100%)	4 (4=60-79%)	–
CCCCn1nnnc1NC(=O)c1nn2cnn(-c3ccc(OC)cc3)c2nc1=O [Compound 1.040]	3 (3=40-59%)	3 (3=40-59%)	4 (4=60-79%)	5 (5=80-100%)	5 (5=80-100%)	5 (5=80-100%)	5 (5=80-100%)	4 (4=60-79%)	5 (5=80-100%)	5 (5=80-100%)	5 (5=80-100%)	5 (5=80-100%)	–
O=C1CCCC(=O)C1C(=O)c1nn2cnn(-c3ccc(F)cc3)c2nc1=O [Compound 4.002]	5 (5=80-100%)	5 (5=80-100%)	5 (5=80-100%)	5 (5=80-100%)	5 (5=80-100%)	5 (5=80-100%)	5 (5=80-100%)	5 (5=80-100%)	5 (5=80-100%)	5 (5=80-100%)	5 (5=80-100%)	4 (4=60-79%)	–
Cn1nnnc1NC(=O)c1nn2cnn(-c3cccc(Cl)c3)c2nc1=O [Compound 1.018]	5 (5=80-100%)	4 (4=60-79%)	5 (5=80-100%)	5 (5=80-100%)	5 (5=80-100%)	5 (5=80-100%)	5 (5=80-100%)	5 (5=80-100%)	5 (5=80-100%)	4 (4=60-79%)	5 (5=80-100%)	3 (3=40-59%)	–
COc1cccc(-n2ncn3nc(C(=O)C4C(=O)CCCC4=O)c(=O)nc23)c1 [Compound 4.010]	5 (5=80-100%)	5 (5=80-100%)	5 (5=80-100%)	5 (5=80-100%)	5 (5=80-100%)	5 (5=80-100%)	5 (5=80-100%)	5 (5=80-100%)	5 (5=80-100%)	4 (4=60-79%)	5 (5=80-100%)	5 (5=80-100%)	–
CCn1nnnc1NC(=O)c1nn2cnn(-c3cccc(C)c3)c2nc1=O [Compound 1.046]	5 (5=80-100%)	5 (5=80-100%)	5 (5=80-100%)	5 (5=80-100%)	5 (5=80-100%)	5 (5=80-100%)	5 (5=80-100%)	5 (5=80-100%)	–	–	–	–	–
O=C1CCCC(=O)C1C(=O)c1nn2cnn(-c3ccccc3)c2nc1=O [Compound 4.001]	–	–	–	–	–	–	–	–	–	–	–	–	percentage damage caused to the plant, POST Application LOLPE ([10]; applied at 250 g/ha): 1 (1=0-19%); percentage damage caused to the plant, POST Application ECHCG ([1]; applied at 250 g/ha): 5 (5=80-100%); percentage damage caused to the plant, PRE Application AMARE ([2]; applied at 250 g/ha): 5 (5=80-100%); percentage damage caused to the plant, POST Application AMARE ([3]; applied at 250 g/ha): 5 (5=80-100%); percentage damage caused to the plant, PRE Application ECHCG ([4]; applied at 250 g/ha): 5 (5=80-100%); percentage damage caused to the plant, POST Application IPOHE ([5]; applied at 250 g/ha): 5 (5=80-100%); percentage damage caused to the plant, PRE Application SETFA ([6]; applied at 250 g/ha): 1 (1=0-19%); percentage damage caused to the plant, PRE Application IPOHE ([7]; applied at 250 g/ha): 1 (1=0-19%); percentage damage caused to the plant, PRE Application LOLPE ([12]; applied at 250 g/ha): 2 (2=20-39%); percentage damage caused to the plant, POST Application SETFA ([8]; applied at 250 g/ha): 5 (5=80-100%)
O=C1CCCC(=O)C1C(=O)c1nn2cnn(-c3ccc(C(F)(F)F)cc3)c2nc1=O [Compound 4.008]	5 (5=80-100%)	5 (5=80-100%)	4 (4=60-79%)	5 (5=80-100%)	5 (5=80-100%)	5 (5=80-100%)	5 (5=80-100%)	5 (5=80-100%)	–	–	–	–	–
O=C(c1nn2cnn(-c3ccc(C(F)(F)F)cc3)c2nc1=O)C1C(=O)C2CCC(C2)C1=O (centres unmarked) [Compound 5.008]	5 (5=80-100%)	5 (5=80-100%)	5 (5=80-100%)	5 (5=80-100%)	5 (5=80-100%)	5 (5=80-100%)	5 (5=80-100%)	5 (5=80-100%)	–	–	–	–	–
O=C1CCCC(=O)C1C(=O)c1nn2cnn(-c3cccc(Cl)c3)c2nc1=O [Compound 4.009]	5 (5=80-100%)	5 (5=80-100%)	5 (5=80-100%)	5 (5=80-100%)	5 (5=80-100%)	5 (5=80-100%)	5 (5=80-100%)	5 (5=80-100%)	–	–	–	–	–
